Ki, EC50 and Emax data for nine compounds are collected here from patent US8980906B2, “Pyridonemorphinan analogs and biological activity on opioid receptors” (Purdue Pharma L.P., priority 2012, dated 2015).

The target of experiment [1] is T1, κ-opioid receptor (Homo sapiens (Human), UniProt P41145). As to the kind of experiment: κ-opioid receptor radioligand dose-displacement binding assay ([3H]-U69,593). As to conditions: binding affinity, [3H]-U69,593 displacement. As to the method:
κ-Opioid Receptor Binding Assay Procedures: Membranes from HEK-293 cells, CHO or U-2 OS cells expressing the recombinant human kappa opioid receptor (κ) were prepared by lysing cells in ice cold hypotonic buffer (2.5 mM MgCl2, 50 mM HEPES, pH 7.4) (10 mL/10 cm dish) followed by homogenization with a tissue grinder/Teflon pestle. Membranes were collected by centrifugation at 30,000×g for 15 min at 4° C. and pellets were resuspended in hypotonic buffer to a final concentration of 1-3 mg/mL. Protein concentrations were determined using the BioRad protein assay reagent with bovine serum albumen as standard, Aliquots of κ receptor membranes were stored at […].
Radioligand dose displacement assays used 0.4 nM [^3H]-U69,593 (GE Healthcare, Piscataway, N.J.; 40 Ci/mmole) with 15 μg membrane protein (recombinant κ opioid receptor expressed in HEK 293 cells; in-house prep) in a final volume of 200 μl binding buffer (5% DMSO, 50 mM Trizma base, pH 7.4). Non-specific binding was determined in the presence of 10 μM unlabeled naloxone or U69,593. All reactions were performed in 96-well polypropylene plates for 1 hour at a temperature of about 25° C. Binding reactions were terminated by rapid filtration onto 96-well Unifilter GF/C filter plates (Perkin Elmer, Shelton, Conn.) presoaked in 0.5% polyethylenimine (Sigma). Harvesting was performed using a 96-well tissue harvester (Perkin Elmer, Shelton, Conn.) followed by five filtration washes with 200 μl ice-cold binding buffer. Filter plates were subsequently dried at 50° C. for 1-2 hours. Fifty μl/well scintillation cocktail (Perkin Elmer, Shelton, Conn.) was added and plates were counted in a Packard Top-Count for 1 min/well.

The target of experiment [2] is T2, μ-opioid receptor (Homo sapiens (Human), UniProt P35372). The experiment is described as follows: μ-opioid receptor radioligand dose-displacement binding assay ([3H]-diprenorphine). Conditions: binding affinity. The method, then:
μ-Opioid Receptor Binding Assay Procedures: Radioligand dose-displacement binding assays for μ-opioid receptors used 0.3 nM [^3H]-diprenorphine (Perkin Elmer, Shelton, Conn.), with […] membrane protein/well in a final volume of 500 μl binding buffer (10 mM MgCl2, 1 mM EDTA, 5% DMSO, 50 mM HEPES, pH 7.4). Reactions were carried out in the absence or presence of increasing concentrations of unlabeled naloxone. All reactions were conducted in 96-deep well polypropylene plates for 2 hours at room temperature. Binding reactions were terminated by rapid filtration onto 96-well Unifilter GF/C filter plates (Perkin Elmer, Shelton, Conn.), presoaked in 0.5% polyethylenimine using a 96-well tissue harvester (Perkin Elmer, Shelton, Conn.) followed by performing three filtration washes with 500 μl of ice-cold binding buffer. Filter plates were subsequently dried at 50° C. for 2-3 hours. BetaScint scintillation cocktail (Perkin Elmer, Shelton, Conn.) was added (50 μl/well), and plates were counted using a Packard Top-Count for 1 min/well. The data were analyzed using the one-site competition curve fitting functions in GraphPad PRISM™ v. 3.0 or higher (San Diego, Calif.), or an in-house function for one-site competition curve-fitting.

For experiment [3], the target named is T1, κ-opioid receptor. As to the kind of experiment: κ-opioid receptor [35S]GTPγS functional assay, U-2 OS cells. The class given is biochemical. As to the method:
(§1) κ-Opioid Receptor Functional Assay Procedures: Functional [^35S]GTPγS binding assays were conducted as follows. κ opioid receptor membrane solution was prepared by sequentially adding final concentrations of 0.026 μg/μl κ membrane protein (in-house), 10 μg/mL saponin, 3 μM GDP and 0.20 nM [^35S]GTPγS to binding buffer (100 mM NaCl, 10 mM MgCl2, 20 mM HEPES, pH 7.4) on ice. The prepared membrane solution (190 μl/well) was transferred to 96-shallow well polypropylene plates containing 10 μl of 20× concentrated stock solutions of agonist prepared in DMSO. Plates were incubated for 30 min at a temperature of about 25° C. with shaking. Reactions were terminated by rapid filtration onto 96-well Unifilter GF/B filter plates (Perkin Elmer, Shelton, Conn.) using a 96-well tissue harvester (Packard) and followed by three filtration washes with 200 μl ice-cold binding buffer (10 mM NaH2PO4, 10 mM Na2HPO4, pH 7.4). Filter plates were subsequently dried at 50° C. for 2-3 hours. Fifty μl/well scintillation cocktail (Perkin Elmer, Shelton, Conn.) was added and plates were counted in a Packard Top-Count for 1 min/well.
(§2) κ-Opioid Receptor Functional Data: κ GTP EC50 is the concentration of a compound providing 50% of the maximal response for the compound at a κ receptor.
(§3) κ GTP Emax (%) is the maximal effect elicited by a compound relative to the effect elicited by U69,593.
(§4) The following TABLE 3 provides results on the activity response of certain Compounds of the Invention at the μ- and κ-opioid receptors determined as described above using U-2 OS cells.
(In general: Binding of GTPγS marks nucleotide exchange on a G protein.)

Experiment [4] addresses T2, μ-opioid receptor. As to the kind of experiment: μ-opioid receptor [35S]GTPγS functional assay, HEK-293 or CHO cells. The class given is biochemical. Conditions: for Emax: relative to DAMGO, HEK-293 or CHO cells.
Experiment [5] has as its target T1, κ-opioid receptor. As to the kind of experiment: κ-opioid receptor [35S]GTPγS functional assay, HEK-293 or CHO cells. It counts as biochemical. Conditions: for Emax: relative to U69,593, HEK-293 or CHO cells. As to the method:
as §1, §2, §3
In TABLE 2, activity response of certain Compounds of the Invention to the μ-, δ- and κ-opioid receptors was determined as described above for functional assays using HEK-293 or CHO cells.

For experiment [6], the target named is T2, μ-opioid receptor. As to the kind of experiment: μ-opioid receptor [35S]GTPγS functional assay, U-2 OS cells. It counts as biochemical. As to the method:
μ-Opioid Receptor Functional Assay Procedures: [^35S]GTPγS functional assays were conducted using freshly thawed μ-receptor membranes prepared in-house from a cell line expressing recombinant μ opioid receptor in a HEK-293, CHO or U-2 OS cell background, or purchased from a commercial source (Perkin Elmer, Shelton, Conn.; or DiscovRx, Fremont, Calif.). Assay reactions were prepared by sequentially adding the following reagents to binding buffer (100 mM NaCl, 10 mM MgCl2, 20 mM HEPES, pH 7.4) on ice (final concentrations indicated): membrane protein (0.026 mg/mL), saponin ([…]), GDP ([…]) and [^35S]GTPγS (0.20 nM; Perkin Elmer, Shelton, Conn.). The prepared membrane solution (190 μl/well) was transferred to 96-shallow well polypropylene plates containing 10 μl of 20× concentrated stock solutions of the agonist [D-Ala^2, N-methyl-Phe^4 Gly-ol^5]-enkephalin (DAMGO) prepared in dimethyl sulfoxide (DMSO). Plates were incubated for 30 min at about 25° C. with shaking. Reactions were terminated by rapid filtration onto 96-well Unifilter GF/B filter plates (Perkin Elmer, Shelton, Conn.) using a 96-well tissue harvester (Perkin Elmer, Shelton, Conn.) followed by three filtration washes with 200 μl of ice-cold wash buffer (10 mM NaH2PO4, 10 mM Na2HPO4, pH 7.4). Filter plates were subsequently dried at 50° C. for 2-3 hours. BetaScint scintillation cocktail (Perkin Elmer, Shelton, Conn.) was added (50 μl/well) and plates were counted using a Packard Top-Count for 1 min/well. Data were analyzed using the sigmoidal dose-response curve fitting functions in GraphPad PRISM v. 3.0, or an in-house function for non-linear, sigmoidal dose-response curve-fitting.
μ-Opioid Receptor Functional Data: μ GTP EC50 is the concentration of a compound providing 50% of the maximal response for the compound at a μ-opioid receptor.
μ GTP Emax (%) is the maximal effect elicited by a compound relative to the effect elicited by DAMGO, a standard μ agonist. Generally, the μ GTP Emax (%) value measures the efficacy of a compound to treat or prevent pain or other Conditions.
as §4

Where [7] appears, read: [3H]-diprenorphine displacement, read-out: Ki (nM) Opioid Receptor μ.

Structures are written as SMILES. Like-named read-outs stand apart in the source and are kept apart here.

In the case of `COc1ccc2c(c1)[C@]13CCN(C)[C@H](C2)[C@]1(O)Cc1cc(C(N)=O)c(=O)[nH]c1C3` [Compound 28, (6R,6aS,12aR)-15-(methyl)-6a-hydroxy-2-methoxy-10-oxo-6,6a,7,10,11,12-hexahydro-5H-6,12a-(epiminoethano)naphtho[2,1-g]quinoline-9-carboxamide], the figures for the Ki in experiment [1] and in experiment [2] (setting [7]) were 12300 nM and 14400 ± 4140 nM, respectively.
For the compound `COC(=O)c1cc2c([nH]c1=O)C[C@]13CCN(Cc4ccccc4)[C@H](Cc4ccc(OC)cc41)[C@]3(O)C2` [Compound 30, (6R,6aS,12aR)-methyl 15-benzyl-6a-hydroxy-2-methoxy-10-oxo-6,6a,7,10,11,12-hexahydro-5H-6,12a-(epiminoethano)naphtho[2,1-g]quinoline-9-carboxylate], the Ki (commonly the equilibrium dissociation constant of an inhibitor or competing ligand from its target) amounted to 599 ± 90 nM in experiment [1] and 3940 ± 860 nM in experiment [2] (setting [7]). Moreover, in experiment [3], the EC50 (in general, the concentration at which the effect is half-maximal) was above 20000 nM. The maximal response (Emax) (in general, the maximal effect, on the per cent scale that the assay sets) in experiment [3] (relative to U69,593, U-2 OS cells) worked out at 1%.
Regarding `NC(=O)c1cc2c([nH]c1=O)C[C@]13CCN(CC4CC4)[C@H](Cc4ccc(O)cc41)[C@@H]3C2` [Compound 7, (6R,6aR,12aS)-15-(cyclopropylmethyl)-2-hydroxy-10-oxo-6,6a,7,10,11,12-hexahydro-5H-6,12a-(epiminoethano)naphtho[2,1-g]quinoline-9-carboxamide], the concentration for a half-maximal effect (EC50) was above 20000 nM in experiment [4] and 33.9 ± 3.73 nM in experiment [5]. In experiment [5], this compound showed a maximal effect (Emax) of 31.3 ± 3.18%. In addition, the inhibition constant (Ki) is 0.19 ± 0.04 nM in experiment [1] and 4.55 ± 1.26 nM in experiment [2] (setting [7]).
Consider `CC(C)C[C@H](NC(=O)c1cc2c([nH]c1=O)C[C@]13CCN(CC4CC4)[C@H](Cc4ccc(O)cc41)[C@@H]3C2)C(N)=O` [Compound 24, (6R,6aR,12aS)—N—((S)-1-amino-4-methyl-1-oxopentan-2-yl)-15-(cyclopropylmethyl)-2-hydroxy-10-oxo-6,6a,7,10,11,12-hexahydro-5H-6,12a-(epiminoethano)naphtho[2,1-g]quinoline-9-carboxamide], for which the concentration for a half-maximal effect (EC50) in experiment [4] was 5.2 ± 1.35 nM; in experiment [5] it was 2.54 ± 0.55 nM. In addition, the Emax in experiment [4] worked out at 37 ± 7.02%; in experiment [5], 23 ± 2.04%. In addition, the Ki amounted to 0.96 ± 0.1 nM in experiment [1] and 3.95 ± 1.84 nM in experiment [2] (setting [7]).
Consider `CN1CC[C@]23Cc4[nH]c(=O)c(C(N)=O)cc4C[C@@]2(O)[C@H]1Cc1ccc(O)cc13` [Compound 29, (6R,6aS,12aR)-15-(methyl)-2,6a-dihydroxy-10-oxo-6,6a,7,10,11,12-hexahydro-5H-6,12a-(epiminoethano)naphtho[2,1-g]quinoline-9-carboxamide], for which the figures for the Ki in experiment [1] and in experiment [2] (setting [7]) were 25.3 ± 4.86 nM and 651 ± 101 nM, respectively.
As to `NC(=O)[C@@H]1CCCN1C(=O)c1cc2c([nH]c1=O)C[C@]13CCN(CC4CC4)[C@H](Cc4ccc(O)cc41)[C@@H]3C2` [Compound 25, (S)-1-((6R,6aR,12aS)-15-(cyclopropylmethyl)-2-hydroxy-10-oxo-6,6a,7,10,11,12-hexahydro-5H-6,12a-(epiminoethano)naphtho[2,1-g]quinoline-9-carbonyl)pyrrolidine-2-carboxamide], the EC50 is 4.87 ± 0.52 nM in experiment [4] and 4.42 ± 0.85 nM in experiment [5]. Further, the Emax in experiment [4] was determined as 29.3 ± 1.45%; in experiment [5], 44.7 ± 2.73%. For the same compound, the Ki in experiment [1] is 0.32 ± 0.06 nM; in experiment [2] (setting [7]) it was 0.41 ± 0.05 nM.
Regarding `NC(=O)C[C@H](NC(=O)c1cc2c([nH]c1=O)C[C@]13CCN(CC4CC4)[C@H](Cc4ccc(O)cc41)[C@@H]3C2)C(N)=O` [Compound 26], the values for the half-maximal effective concentration (EC50) in experiment [4] and in experiment [5] were 7.54 ± 1.97 nM and 8.87 ± 1.35 nM, respectively. The maximal response (Emax) in experiment [4] was 38 ± 1.15%; in experiment [5] it was 39 ± 2.08%. Also, the Ki is 0.86 ± 0.23 nM in experiment [1] and 0.71 ± 0.11 nM in experiment [2] (setting [7]).
In the case of `COC(=O)c1cc2c([nH]c1=O)C[C@]13CCN(C)[C@H](Cc4ccc(OC)cc41)[C@]3(O)C2` [Compound 27, (6R,6aS,12aR)-methyl 15-(methyl)-6a-hydroxy-2-methoxy-10-oxo-6,6a,7,10,11,12-hexahydro-5H-6,12a-(epiminoethano)naphtho[2,1-g]quinoline-9-carboxylate], the inhibitory constant (Ki) in experiment [1] was 3080 ± 128 nM; in experiment [2] (bound given in μM, read-out: Ki Opioid Receptor μ) it was above 20000 nM.
Regarding `COc1ccc2c(c1)[C@]13CCN(Cc4ccccc4)[C@H](C2)[C@]1(O)Cc1cc(C(N)=O)c(=O)[nH]c1C3` [Compound 31, (6R,6aS,12aR)-15-benzyl-6a-hydroxy-2-methoxy-10-oxo-6,6a,7,10,11,12-hexahydro-5H-6,12a-(epiminoethano)naphtho[2,1-g]quinoline-9-carboxamide], in experiment [6], the EC50 is above 20000 nM. The same compound showed a maximal response (Emax) in experiment [6] (relative to DAMGO, U-2 OS cells) of 10.7 ± 5.21%. The inhibition constant Ki in experiment [1] came out at 1580 ± 308 nM; in experiment [2] (setting [7]), 5590 ± 696 nM.
